Laboratory results published in paper PMC7384330 (Neuropharmacology, 2018).

Tests used:
[1] = test system: BALB/cByJ mice; assay: Marble-burying assay, BALB/cByJ; assay type: in vivo, mouse; settings: acute IP, 50 min before test; Supplemental Fig. 3B, C
[2] = test system: rats; settings: ref de Wied et al., 1987; cited from earlier work
[3] = test system: BALB/cByJ mice; assay: Open field test for activity and exploration; assay type: in vivo, mouse
[4] = test system: BALB/cByJ mice; assay: Three-chamber social choice test after subchronic regimen; assay type: in vivo, mouse
[5] = test system: rats; settings: dependent on dose; ref Popik et al., 1996; cited from earlier work

pGlu-Asn-Cyt-Pro-Leu-Gly-NH2 [OT(4-9)]
digging responses in marble-burying assay, oxytocin metabolites [1]: neither OT(4-9) nor OT(5-9) altered digging responses in the marble-burying assay | potency on avoidance learning relative to oxytocin [2]: greater potency than oxytocin itself on specific aspects of avoidance learning in rats | activity or exploration in open field, OT(4-9) ([3]; OT(4-9) 2.0 mg/kg IP immediately before 2-hr test, versus vehicle, n=9): no significant effects on activity or exploration in the open field | anxiolytic effects, acute OT(4-9) ([3]; acute, marble-burying assay and open field tests): lacked anxiolytic effects in the marble-burying assay and open field tests | entries, OT(4-9) 1.0 mg/kg ([4]; 1.0 mg/kg IP, subchronic, n=8): without changing entries during the test | proximity to stranger mouse, OT(4-9) 1.0 mg/kg ([4]; 1.0 mg/kg IP, subchronic, n=8, main effect of side F(1,14)=6.84, p=0.0204): significant social preference for proximity to the stranger mouse | time in side with stranger mouse, OT(4-9) 2.0 mg/kg, 24 hr and 12 days ([4]; 2.0 mg/kg IP, subchronic, 24-hr test F(1,21)=7.3, p=0.0133, 12-day test F(1,21)=4.85, p=0.039, n=8): significant preference for spending more time in the side with the stranger mouse at both time points | proximity to stranger mouse, OT(4-9) 2.0 mg/kg, 12 days ([4]; 2.0 mg/kg IP, subchronic, 12 days, F(1,21)=7.02, p=0.015, n=8): significant preference for proximity to the stranger mouse 12 days following the final injection | prosocial efficacy compared with oxytocin ([4]; OT(4-9) 2.0 mg/kg vs oxytocin 1.0 mg/kg, subchronic): prosocial efficacy similar to oxytocin | dose dependence of sociability, OT(4-9) ([4]; subchronic IP): only the higher doses (1.0 and 2.0 mg/kg) leading to increased sociability | entries during 3-chamber test (discussion) ([4]; subchronic IP): neither oxytocin nor OT(4-9) led to alterations in entries during the 3-chamber test | social recognition [5]: oxytocin-like effects on social recognition in rats, dependent on dose
